Values belong to the substance of their own block, whether it stands above or below them. No end group written: not given here.
Tests used:
[1] = test system: denatured collagen type-IV; experiment: 99Tc-CLK-Peptide competitive binding to denatured collagen type-IV (gamma counter); conditions: 99Tc-CLK-peptide 10 μg/ml, 50 μl/well; collagen 10 μg/ml
Experimental: FIG. 18 Inhibition of 99Tc-CLK-Peptide binding by unlabeled HUI77.
FIG. 19 Inhibition of Binding of Labeled CLK-Peptide to Denatured Collagen Type-IV by mAb HUI77. Denatured collagen type-IV (10 μg/ml) was coated on microtiter wells and binding of 99Tc-labeled CLK-Peptide in the presence or absence of unlabeled CLK-peptide or mAb HUI77 was measured. As shown in the figure, 99Tc-CLK-peptide (10 μg/ml, 50 μl/well) specifically binds to denatured collagen type-IV (first bar from left). […] 99Tc-CLK-peptide was also allowed to bind to denatured collagen type-IV in the presence or absence of Mab HUI77 (fourth and fifth bars from left). […] These findings provide further evidence that the CLK-peptide binds to a similar if not identical epitope recognized by Mab HUI77.
^99Tc-CLK-Peptide was used in competitive binding studies to further characterize the CLK epitope. To evaluate the ability of HUI77 to compete with binding to denatured type-IV collagen, type-IV collagen was denatured at 60° C. for 15 minutes at a concentration of […] in PBS. […] The supernatant, washes and collagen-coated wells were counted in a gamma counter (1 minute counts in duplicate).
In addition, denatured collagen type-IV (10 μg/ml) was coated on microtiter wells and binding of ^99Tc-labeled CLK-Peptide in the presence or absence of either unlabeled CLK-peptide or mAb HUI77 was measured using a gamma counter. […]

[2] = test system: Human melanoma cells (M21); experiment: M21 cell adhesion to denatured or native collagen type-IV or fibronectin (Example 9); assay type: cell-based; conditions: 0-100 μg/ml
Experimental: Non-tissue culture treated 48-well plates were coated with denatured collagen type-IV at 10 μg/ml. […] Cell adhesion was quantified by measuring the O.D. of eluted dye at 600 nm. Data bars represent the mean O.D.±standard deviation from triplicate wells. Assays were completed 2 to 3 times with similar results.
Non-tissue culture treated 48-well plates were coated with native collagen type-IV or fibronectin at 10 μg/ml. Human melanoma cells (M21) were allowed to attach to the coated wells in the presence or absence of CLK-Peptide or control peptide CTW at 0-100 μg/ml. Cell adhesion was quantified by measuring the O.D. of eluted dye at 600 nm. Data bars represent the mean O.D.±standard deviation from triplicate wells. Assays were completed 2 to 3 times with similar results. A. Adhesion to native collagen type-IV. B. Adhesion to Fibronectin.
Adhesion assays were performed to study the effects of CLK-peptide on tumor cell adhesion in vitro. Microtiter wells were coated with either native collagen type-IV or the control ECM protein fibronectin. Malignant melanoma cells (M21) were allowed to bind to the coated substrates in the presence or absence of CLK peptide or a control peptide, CTW.

[3] = test system: Glioblastoma (GL261) cells; experiment: GL261 glioblastoma cell adhesion to collagen type-IV; assay type: cell-based, murine; conditions: 50 μg/ml
Experimental: FIG. 21 Effects of CLK-Peptide on Glioblastoma Cell Adhesion to Denatured Collagen Type-IV.
To assess the functional significance of the HUI77/CLK cryptic epitope, cell adhesion assays using a glioblastoma cell line were performed. Microtiter plates were coated with denatured collagen type-IV (10 μg/ml). Glioblastoma (GL261) cells were resuspended in adhesion buffer in the presence or absence of CLK-peptide or a non-specific control (CTW) peptide (50 μg/ml) and the […] were incubated in the coated wells for 30 minutes. Non-attached cells were removed by washing, and attached cells quantified by staining with crystal violet.

[4] = test system: Human endothelial cells (HUVECs); experiment: Endothelial cord formation in MATRIGEL; assay type: cell-based; conditions: 0 to 100 μg/ml, 24 hours
Experimental: FIG. 6 Effects of CLK Peptide on HUVEC Cord Formation in MATRIGEL®. MATRIGEL was added to 96-well plates and allowed to form three-dimensional gels. […] Representative photos were taken at a magnification of 100×. A. Untreated control. B. CLK 25 μg/ml. C. CLK 50 μg/ml. D. CLK 100 μg/ml. E. Control Peptide 100 μg/ml.
The role that the CLK cryptic collagen epitope plays in regulating endothelial cell morphogenesis and cord formation, processes important in angiogenesis, were investigated. MATRIGEL was diluted in M199 medium and 300 μl were added to the wells of a 48-well culture plate and allowed to polymerize. […] Endothelial morphogenesis and cord formation was monitored with an inverted microscope fitted with a 35 mm camera to document cord formation.

[5] = test system: Human melanoma cells M21; experiment: M21 melanoma cell adhesion to denatured collagen type-IV (Example 2); assay type: cell-based; conditions: M21 cells on denatured collagen type-IV; peptide 250 μg/ml
Excerpt: FIG. 1 is a chart which illustrates M21 human melanoma cell adhesion to untreated denatured type-IV collagen (NT), CLK-peptide treated denatured collagen type-IV, SLK-peptide treated denatured collagen type-IV, and SDR-peptide treated denatured collagen type-IV.
SLK peptides bind to functional epitopes within denatured collagen type-IV that regulate cellular adhesion. Non-tissue culture treated 48-well plates were coated with denatured collagen type-IV. Human melanoma cells M21 (Scripps Research Institute, La Jolla, Calif.) were allowed to attach to the coated wells in the presence or absence of the synthetic peptides CLK, SLK, and SDR, each peptide was at a concentration of 250 μg/ml. SDR peptide is a commercially available peptide that was used as a control (QED Bioscience, Inc., San Diego, Calif.).
Human denatured collagen type-IV (25 μg/ml) was immobilized on 48-well nontissue culture treated plates. Wells were washed and incubated with 1% BSA (bovine serum albumin) in PBS (phosphate-buffered saline) for one hour at 37° C. Subconfluent […] were harvested, washed, and resuspended in adhesion buffer containing RPMI-1640 medium, 1 mM MgCl2, 0.2 mM MnCl2, and 0.5% BSA. […] Cell adhesion was quantified by measuring the optical density of eluted crystal violet at a wavelength of 600 nm.

binding to denatured collagen type-IV [1]: specifically bound
Substance: 99Tc-CLK-peptide: 99Tc-labeled CLK-Peptide used in competitive binding studies (CLKQNGGNFSLG; also: 99Tc-labeled, site not given here)

Substance: CTWPRHHTTDALL (control peptide) [reference compound]
effect on M21 cell adhesion to fibronectin [2]: Neither CLK-Peptide nor the control peptide had any effect
effect on M21 cell adhesion to native triple helical collagen type-IV [2]: Neither CLK-Peptide nor the control peptide had any effect
effect on M21 cell attachment to denatured collagen type-IV [2]: no effect
effect on glioblastoma cell adhesion to denatured collagen type-IV [3]: no effect
effect on endothelial cord formation [4]: little if any effect

Substance: NH2-S-L-K-Q-N-G-G-N-F-S-L-C-COOH (H-SLKQNGGNFSLC-OH) [SLK-peptide]
blockade of melanoma cell adhesion [5]: about 50%

— patent US8133471B2, “CLK-peptide and SLK-peptide” (New York University, priority 2003, dated 2012)
